Reference: US20210113492A1, “METHOD FOR INHIBITING PROLIFERATION AND METASTASIS OF CANCER CELLS BY USING NAPHTHOQUINONE DERIVATIVE” (National Tsing Hua University, priority 2019, published 2021)

Tests used:
[1] = tested on: oral squamous cell carcinoma cells (OC3-IV2); experiment: Boyden chamber invasion assay, OC3-IV2; type: cell-based, human; details: 5, 7.5 and 10 μM, 24 h, dose dependency (FIG. 2A)
Protocol: Cells were harvested by […] and resuspended in a serum-free medium with 0.1% BSA. Then, […] of cell suspension (2×10^5 cells) was seeded into the upper insert of SPLInsert with Polyethylene terephthalate (PET) membrane (pore size: 8.0 μm) (SPL Lifesciences, Korea) pre-coated with matrigel (BD Biosciences, San Jose, Calif.). The bottom well of 24-well plate of SPLInsert was filled with cell medium containing 10% FBS with different concentrations of isoplumbagin (5, 7.5 and 10 μM, Experimental group of oral squamous cell carcinoma cells (OC3-IV2); 2.5, 5 and 10 μM, Experimental groups of human primary glioblastoma cells (U87), human non-small cell lung carcinoma cells (H1299), human prostate cancer cells (PC3) and human cervical cancer cells (Hela)) or without isoplumbagin (DMSO added). […] Number of cells was counted using Image J. Relative invasion ability was calculated as cell number per area.
FIGS. 2A-2E show the inhibitory effect of different doses of isoplumbagin on invasion for oral squamous cell carcinoma cells (OC3-IV2), human primary glioblastoma cells (U87), human non-small cell lung carcinoma cells (H1299), prostate cancer cells (PC3) and cervical cancer cells (Hela) assessed with the Boyden chamber assays. *Compared with solvent control (DMSO). […]

NQO1 = target: T1, NQO1 (Homo sapiens, UniProt P15559); experiment: NQO1 enzymatic activity assay (substrate reduction with NADH and WST1); type: biochemical; details: cytosolic fractions of OC3-IV2 cells; isoplumbagin 5 μM and 10 μM, menadione 1X and 2X
T1 construct: endogenous in cells; host or cells: OC3-IV2 (human oral squamous cell carcinoma), cytosolic fraction / lysate supernatant
Protocol: FIG. 4 proves that isoplumbagin is a substrate of NQO1. The cytosolic fractions of OC3-IV2 cells were used for the NQO1 enzymatic activity assay. The NQO1 enzyme activity was calculated by measuring the simultaneous reduction of menadione or isoplumbagin with cofactor NADH and WST1 (a highly sensitive tetrazolium reagent) which leads to increased absorbance at 450 nm. NQO1 activity assay kit (#ab184867) was purchased from Abcam (Cambridge, Mass., USA). OC3-IV2 cells were lysed with 1X extraction buffer containing 1 mM phenylmethylsulfonyl fluoride (PMSF) for 15 min on ice, and then centrifuged at 17,000×g at 4° C. for 20 min. The supernatant was collected and then the protein concentration of each sample was determined by BCA assays (Santa Cruz Biotechnology). Diluted sample and reaction buffer were added into 96-wells plate containing menadione (1X and 2X) or different concentrations of isoplumbagin (5 μM and 10 μM) with cofactor NADH and WST1. The absorbance of reduced WST1 was measured at 450 nm wavelengths by a spectrophotometer. Data from three independent experiments are presented as mean ±SEM (*P<0.05 compared with no substrate, paired Student's t-test).

[2] = tested on: oral squamous cell carcinoma cells (OC3-IV2); experiment: Oxygen consumption rate in intact cells (O2k Oxygraph); type: cell-based, human; details: 2.5 μM, one independent experiment
Protocol: Oxygen consumption rate (OCR) in intact cells suspension was measured by O2k Oxygraph (Oroboros Instruments). DMSO or 2.5 μM isoplumbagin treated cells were detached from the plate by trypsinization and suspended at 5×10^5 cells/ml in DMEM/KSFM medium supplemented with 10% FBS into the O2k chambers. Oxygen consumption rate of DMSO or isoplumbagin treated cells samples were measured by adding 0.5 μM oligomycin, 0.5 μM FCCP, 1 μM rotenone and 1 μM antimycin A.
FIGS. 6A and 6B show the inhibitory effect of isoplumbagin on mitochondrial function and complex IV activity of oral squamous cell carcinoma cells (OC3-IV2). Oxygen consumption rate (OCR) of OC3-IV2 cells treated with DMSO (as control) or 2.5 μM isoplumbagin were measured by Oroboros instruments (FIG. 6A). […] OC3-IV2 cells treated with DMSO or 2.5 μM isoplumbagin were permeabilized with 5 μM digitonin (Dig) and added indicated substrates and inhibitors, and then mitochondria complex I/IV activity were determined by Oroboros instruments (FIG. 6B). Glu/Mal: glutamate (10 mM) and malate (2 mM), ADP (5 mM), Omy: oligomycin (0.5 μM), FCCP (0.5 nM), Rot: rotenone (1 μM), Ama: antimycin A (2 μM), TMPD: tetramethyl-p-phenylenediamine (0.1 mM), Asc: ascorbate (0.4 mM) and NaN3 5 mM. Data from three independent experiments are presented as mean ±SEM (*P<0.05, paired Student's t-test).

OC3-IV2 cells = experiment: Oral orthotopic OC3-IV2 xenograft mice model; type: in vivo, CB17/lcr-Prkdc^scid/CrlNarl mice; details: 2 mg/kg intraperitoneal once every 3 days, day 0-18
Protocol: In this example, the anti-tumor effect of isoplumbagin in xenograft mice model was explored. In oral orthotopic xenograft CB17/lcr-Prkdc^scid/CrlNarl mice model, 1×10^6 OC3-IV2 cells were harvested and re-suspended in 100 μl PBS. The cells were injected through the oral buccal mucosa into six-week-old male CB17/lcr-Prkdc^scid/CrlNarl mice (National Laboratory Animal Center, Taiwan). When the tumor size in oral buccal reached approximately 25 mm^3 at 14 days after inoculation of the OC3-IV2 cells, mice were randomly assigned into two groups (n=3 per group): vehicle (DMSO) control group and 2 mg/kg isoplumbagin group. Treatments were given via intraperitoneal injection once every 3 days in the morning for 2 weeks. During this period, mice weights and tumor volumes (length×width^2/2) were recorded every 3 days. At the end of the study (on day 18), the mice were sacrificed by carbon dioxide asphyxiation. […]
FIGS. 7A-7D show the anti-tumor effect of isoplumbagin in xenograft mice model. […] Tumor volume (FIG. 7A) and body weight (FIG. 7B) were measured from day 0-18 after treatment. […]

T1 sequence (P15559 whole entry): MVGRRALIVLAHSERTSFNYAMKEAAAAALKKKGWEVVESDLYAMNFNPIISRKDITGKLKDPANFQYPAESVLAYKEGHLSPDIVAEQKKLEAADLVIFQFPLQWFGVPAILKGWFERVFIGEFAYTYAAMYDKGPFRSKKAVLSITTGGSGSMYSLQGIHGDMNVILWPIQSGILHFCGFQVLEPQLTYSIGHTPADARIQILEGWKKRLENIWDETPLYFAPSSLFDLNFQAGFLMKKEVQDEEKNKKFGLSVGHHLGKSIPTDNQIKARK

## CC1=CC(=O)c2cccc(O)c2C1=O [isoplumbagin, 5-hydroxy-3-methyl-1,4-naphthoquinone]
[1]
  cancer cells migrating through the membrane (invasion): decrease significantly
NQO1
  substrate of NQO1 (reduction with NADH and WST1, absorbance at 450 nm): substrates of NQO1
[2]
  mitochondrial function (oxygen consumption rate): can reduce mitochondrial function
OC3-IV2 cells
  tumor growth (tumor volume, tumor weight): can effectively inhibit tumor growth
